Measurements from ChEMBL document CHEMBL3352679, “Structure and evaluation of antibacterial and antitubercular properties of new basic and heterocyclic 3-formylrifamycin SV derivatives obtained via 'click chemistry' approach” (Eur J Med Chem, 2014).
In brackets after ≈: the same amount, converted by molar mass.

Tested on: Mycobacterium tuberculosis variant bovis
Assay: Antituberculosis activity against Mycobacterium bovis after 14 days by serial microdilution method
Type: functional
Settings: 336 h

SMILES	MIC99
CO[C@H]1/C=C/O[C@@]2(C)Oc3c(C)c(O)c4c(O)c(c(C=O)c(O)c4c3C2=O)NC(=O)/C(C)=C\C=C\[C@H](C)[C@H](O)[C@@H](C)[C@@H](O)[C@@H](C)[C@H](OC(C)=O)[C@@H]1C	> 1 mg/L
CO[C@H]1/C=C/O[C@@]2(C)Oc3c(C)c(O)c4c(O)c(c(CNCCN(C)C)c(O)c4c3C2=O)NC(=O)/C(C)=C\C=C\[C@H](C)[C@H](O)[C@@H](C)[C@@H](O)[C@@H](C)[C@H](OC(C)=O)[C@@H]1C	> 1 mg/L
CO[C@H]1/C=C/O[C@@]2(C)Oc3c(C)c(O)c4c(O)c(c(CNCCN5CCCC5)c(O)c4c3C2=O)NC(=O)/C(C)=C\C=C\[C@H](C)[C@H](O)[C@@H](C)[C@@H](O)[C@@H](C)[C@H](OC(C)=O)[C@@H]1C	1 mg/L (≈ 1.21 µM)
CO[C@H]1/C=C/O[C@@]2(C)Oc3c(C)c(O)c4c(O)c(c(CNCCCN5CCCC5)c(O)c4c3C2=O)NC(=O)/C(C)=C\C=C\[C@H](C)[C@H](O)[C@@H](C)[C@@H](O)[C@@H](C)[C@H](OC(C)=O)[C@@H]1C	1 mg/L (≈ 1.19 µM)
CO[C@H]1/C=C/O[C@@]2(C)Oc3c(C)c(O)c4c(O)c(c(CNCCCn5ccnc5)c(O)c4c3C2=O)NC(=O)/C(C)=C\C=C\[C@H](C)[C@H](O)[C@@H](C)[C@@H](O)[C@@H](C)[C@H](OC(C)=O)[C@@H]1C	1 mg/L (≈ 1.2 µM)
CO[C@H]1/C=C/O[C@@]2(C)Oc3c(C)c(O)c4c(O)c(c(CNC5CCN(Cc6ccccc6)CC5)c(O)c4c3C2=O)NC(=O)/C(C)=C\C=C\[C@H](C)[C@H](O)[C@@H](C)[C@@H](O)[C@@H](C)[C@H](OC(C)=O)[C@@H]1C	0.125 mg/L (≈ 0.139 µM)
CO[C@H]1/C=C/O[C@@]2(C)Oc3c(C)c(O)c4c(O)c(c(CNCCCN5CCN(CCCNCc6c7c(O)c8c(O)c(C)c9c(c8c6O)C(=O)[C@@](C)(O/C=C/[C@H](OC)[C@@H](C)[C@@H](OC(C)=O)[C@H](C)[C@H](O)[C@H](C)[C@@H](O)[C@@H](C)/C=C/C=C(/C)C(=O)N7)O9)CC5)c(O)c4c3C2=O)NC(=O)/C(C)=C\C=C\[C@H](C)[C@H](O)[C@@H](C)[C@@H](O)[C@@H](C)[C@H](OC(C)=O)[C@@H]1C	> 1 mg/L
CCCc1cn(CCNCc2c3c(O)c4c(O)c(C)c5c(c4c2O)C(=O)[C@@](C)(O/C=C/[C@H](OC)[C@@H](C)[C@@H](OC(C)=O)[C@H](C)[C@H](O)[C@H](C)[C@@H](O)[C@@H](C)/C=C/C=C(/C)C(=O)N3)O5)nn1	1 mg/L (≈ 1.16 µM)
CCCCCc1cn(CCCNCc2c3c(O)c4c(O)c(C)c5c(c4c2O)C(=O)[C@@](C)(O/C=C/[C@H](OC)[C@@H](C)[C@@H](OC(C)=O)[C@H](C)[C@H](O)[C@H](C)[C@@H](O)[C@@H](C)/C=C/C=C(/C)C(=O)N3)O5)nn1	0.5 mg/L (≈ 0.552 µM)
CO[C@H]1/C=C/O[C@@]2(C)Oc3c(C)c(O)c4c(O)c(c(CNCc5cn(CN6C(=O)c7ccccc7C6=O)nn5)c(O)c4c3C2=O)NC(=O)/C(C)=C\C=C\[C@H](C)[C@H](O)[C@@H](C)[C@@H](O)[C@@H](C)[C@H](OC(C)=O)[C@@H]1C	0.25 mg/L (≈ 0.259 µM)
CCCc1cn(CCN2Cc3c4c(O)c5c(O)c(C)c6c(c5c3O)C(=O)[C@@](C)(O/C=C/[C@H](OC)[C@@H](C)[C@@H](OC(C)=O)[C@H](C)[C@H](O)[C@H](C)[C@@H](O)[C@@H](C)/C=C/C=C(/C)C2=N4)O6)nn1	0.5 mg/L (≈ 0.591 µM)
CCCCCc1cn(CCCN2Cc3c4c(O)c5c(O)c(C)c6c(c5c3O)C(=O)[C@@](C)(O/C=C/[C@H](OC)[C@@H](C)[C@@H](OC(C)=O)[C@H](C)[C@H](O)[C@H](C)[C@@H](O)[C@@H](C)/C=C/C=C(/C)C2=N4)O6)nn1	0.5 mg/L (≈ 0.563 µM)
CO[C@H]1/C=C/O[C@@]2(C)Oc3c(C)c(O)c4c(O)c5c(c(O)c4c3C2=O)CN(Cc2cn(CN3C(=O)c4ccccc4C3=O)nn2)C(=N5)/C(C)=C\C=C\[C@H](C)[C@H](O)[C@@H](C)[C@@H](O)[C@@H](C)[C@H](OC(C)=O)[C@@H]1C	0.5 mg/L (≈ 0.527 µM)
CO[C@H]1/C=C\O[C@@]2(C)Oc3c(C)c(O)c4c(O)c(c(CNC5CCN(Cc6ccccc6)CC5)c(O)c4c3C2=O)NC(=O)/C(C)=C\C=C/[C@H](C)[C@H](O)[C@@H](C)[C@@H](O)[C@@H](C)[C@H](OC(C)=O)[C@@H]1C	0.125 mg/L (≈ 0.139 µM)
CO[C@H]1/C=C/O[C@@]2(C)Oc3c(C)c(O)c4c(O)c(c(/C=N/N5CCN(C)CC5)c(O)c4c3C2=O)NC(=O)/C(C)=C\C=C\[C@H](C)[C@H](O)[C@@H](C)[C@@H](O)[C@@H](C)[C@H](OC(C)=O)[C@@H]1C [RIFAMPIN]	0.25 mg/L (≈ 0.304 µM)
